Here are results for seven molecules from patent US8088822B2, “Use of fenretinide or bioactive derivatives thereof and pharmaceutical compositions comprising the same” (priority 2008, dated 2012).

Where a SMILES comes first, the peptide text is derived from it. The star is where a group is joined. Cbz = O=C(OCc1ccccc1)*

One experiment concerns MKN45. Nature of the experiment: Apoptosis in gastric tumor cell line MKN45 (Rh123/PI, FACS). It is filed as cell-based. The following applies: MKN45, 48 hours; 4 μM fenretinide, 5 μM Tet, alone or co-treatment. On the procedure:
Loss of MTP was evaluated through rhodamine 123 (Rh123) and propidium iodide (PI) staining. 2×10^5 cells were washed by PBS and incubated with 1 μg/ml Rh123 at 37° C. for 30 min. After washed by PBS, 10 μl PI was added to cells for 15 min at room temperature in the dark. Fluorescence emission at 530 nm (representing R123 retention as a function of MTP) was measured with flow cytometry.
Fenretinide induces intracellular ROS and ER stress to activate series of molecular events including apoptotic pathway and such anti-apoptotic pathways as NF-κB cascade. NF-κB can mediate the progression of inflammation-related cancer. […] Unlike fenretinide, Tet is the well-known anti-cancer and anti-inflammation drugs via inhibiting the activity of NF-κB. For example, Tet, as the main effective component of Stephenia tetrandra S Moore, has bioactivities in reversing MDR (multidrug resistance), blocking calcium ion channel and so on. […] FIGS. 19A and 19B show synergistic induction of apoptosis by fenretinide and Tet, as evaluated by Rh123/PI double stain using FACS. […] Through annexin-V/PI double staining, synergistic apoptosis profiles of fenretinide/tetrandrine co-treated MKN45 and SGC7901 cells were also observed (see FIGS. 19C and 19D).

Experiment [1] deals with HL60 cells. Description: MTT cell viability of quiescent and proliferating HL60 cells. It is filed as cell-based. The following applies: 0-10 μM, 24 and 48 h. On the procedure: The cell viability was determined by 3-(4,5-dimethylthiazol-2-yl)-2,5-diphenyltetrazolium bromide (MTT) assay.
As previous case (Example 1), HL60 cells were chosen as serum deprived quiescent leukemic cell model obtained when incubated in RPMI 1640 without serum for 48 h. Serum-deprived quiescent leukemic cells and proliferating leukemic cells were then cultured in media containing 0.5% FBS, and treated with 0-10 μM 4-oxo-N-(4-hydroxyphenyl)retinamide for 24 and 48 h, respectively. The cell viability was test by MTT assay.

Experiment [2] relates to CD34+CD38− AML stem cells. Nature of the experiment: Apoptosis of AML stem cells. It is filed as cell-based, human. The following applies: 1-7.5 μM, 48 h. The procedure: (§1) Primitive AML and CML subpopulations (CD34^+ cells) were identified using CD34-PE in combination with CD38-APC, and followed by double-labeling with 7AAD and Annexin V antibodies for apoptosis assessment. The CD34^+ cells were first stained with antibodies against the surface markers CD34-PE and CD38-APC (Beckman Coulter, Fullerton, Calif.) and incubated at room temperature for 15 minutes. Cells were then washed with cold PBS and resuspended in 200 μL annexin V 1×binding buffer (10 mM HEPES/NaOH, pH 7.4, 140 mM NaCl, 2.5 mM CaCl2), 5 μL AnnexinV-FITC (BD Phanningen, San Diego, Calif.) and 7-aminoactinomycin (7-AAD, 0.25 mg/mL) (Molecular Probes, Eugene, Oreg.). Subsequently, the samples were incubated at room temperature for 15 minutes and analyzed by flow cytometry.
(§2) To determine whether 4-oxo-N-(4-hydroxyphenyl)retinamide like fenretinide could preferentially target primitive leukemia cells, CD34^+ cells are isolated from bone marrow specimens of AML patients and subjected to apoptosis assay upon the treatment with 1-7.5 μM 4-oxo-N-(4-hydroxyphenyl)retinamide for 48 h.

The test system of experiment [3] is CD34+CD38+ AML progenitor cells. Nature of the experiment: Apoptosis of AML progenitor cells. It is filed as cell-based, human. The following applies: 1-7.5 μM, 48 h. The procedure: as §1, §2
For the next experiment, the system named is NB4 cells. Nature of the experiment: Antagonist assays, apoptosis of NB4 cells. The following applies: 100 μM vitamin C pre-treatment 2 hours, then 1 μM fenretinide 24 hours. In kind it is cell-based.
The subject of another experiment is K562. Description: Apoptosis in CML cell line K562. It is filed as cell-based. The following applies: 4 μM fenretinide, 0.25 μM imatinib, 0.1 μM MG132, alone or combined. On the procedure:
(§3) 2×10^5 cultured cells were used for evaluating apoptosis using an ApoAlert Annexin V-FITC Apoptosis Kit (BD Biosciences). Cells were washed once by PBS, resuspended in 200 μl Annexin-V binding buffer, and then stained with Annexin V-FITC 5 μl, PI 10 μl for 15 min at room temperature in the dark. Cells were subsequently analyzed by flow cytometry.

For the next experiment, the system named is CML CD34+ cells. Description: Colony forming assay in primary CML CD34+ cells. In kind it is cell-based, human. The following applies: 0.25 μM imatinib, 4 μM fenretinide or both, 14 days. From the text:
Fresh bone marrow (BM) cells were obtained from 38 patients with CML and 5 non-leukemic donors, 25 AML, 17 ALL, and 8 normal specimens with informed consent according to the Declaration of Helsinki. Approval was obtained from Institutional Review Board at the School of Medicine in Shanghai Jiao Tong University. BM mononuclear cells were isolated by Ficoll density gradient centrifugation (Shanghai Second Reagent Factory, Shanghai, China). CD34^+ Cell were selected using EasySep® Human CD34 Positive Selection kit (Stem Cell Technologies, Vancouver, BC, Canada) according to the manufacturer's instructions. […] The CD34^+ cells were cultured in a serum-free medium (StemPro 34; Gibco BRL, Gaithersburg, Md.) supplemented with growth factors (PeproTech, London, United Kingdom) (20). The growth factors consisted of GM-CSF (200 pg/mL), G-CSF (1 ng/mL); SCF (200 pg/mL); LIF (50 pg/mL), MIP-1α (200 pg/mL) and IL-6 (1 ng/mL).
A quantity of 1000 CD34^+ cells were plated in semisolid methylcellulose-based media (Methocult H4434: Stem Cell Technologies, Vancouver, BC, Canada). After incubation at 37° C. in a fully humidified atmosphere of 5% CO2 for 14 days, granulocyte macrophage-colony-forming units (CFU-GM), erythroid burst-forming units (BFU-E), granulocyte, erythrocyte and monocyte, megakaryocyte-colony-forming units (CUF-GEMM) were counted. Only clusters with >50 cells were counted as a colony.
We further performed study to examine the effects of fenretinide on colony forming in primary CML cells derived from 38 bone marrow specimens of CML patients (TABLE 1). First, CML CD34^+ Cells were isolated using EasySep® Human CD34 Positive Selection kit (Stem Cell Technologies, Vancouver, BC, Canada). Upon treated with 2 μM and 4 μM fenretinide, colony forming assays were performed respectively on granulocyte macrophage-colony-forming units (CFU-GM), erythroid burst-forming units (BFU-E), granulocyte, erythrocyte and monocyte, megakaryocyte-colony-forming units (CFU-GEMM).

The test system of another experiment is patients with CML. The following applies: patients with CML treated with imatinib; cited from earlier work.
The test system of experiment [4] is U937. Nature of the experiment: Apoptosis in AML cell line U937. It is filed as cell-based. The following applies: U937, within 48 hours, alone or combined. The procedure: as §3
There are two observations that drive us in further exploring alternative therapeutic combinations. As illustrated in Example 6, proteasome inhibitors can potentate fenretinide-induced apoptosis in leukemia. […] The apoptosis rates were quite low when treated alone within 48 hours (nearly 5%), and the number doubled when treated by fenretinide and MG132.

The test system of experiment [5] is HL60 cells. Nature of the experiment: Mitochondrial transmembrane potential (MTP) assay, Rh123/PI, HL60 cells. In kind it is cell-based. The following applies: quiescent HL60 cells; 20 μM IDA or 5 μM Ara-C. The procedure: (§4) HL60 cells were cultured in RPMI 1640 supplemented (i) with or (ii) without 10% fetal bovine serum to obtain proliferating and quiescent leukemia cells respectively. Serum-deprived quiescent leukemic cells and proliferating leukemic cells were then cultured in media containing 0.5% FBS, and treated with 1 μM and 2.5 μM fenretinide, and also with chemotherapeutics as controls, 20 μM idarubicin (IDA) and 5 μM cytarabine (Ara-C).
(§5) To examine the effects of fenretinide on proliferating and quiescent leukemia cells, HL60 cells were chosen as serum deprived quiescent leukemic cell model obtained when incubated in RPMI 1640 without serum for 48 h, with G0/G1 phase cells (being in quiescent state) accounting up to 59.9%. Serum-deprived quiescent leukemic cells and proliferating leukemic cells were then cultured in media containing 0.5% FBS, and treated with 1 μM and 2.5 μM fenretinide, and also with chemotherapeutics as controls, 20 μM idarubicin (IDA) and 5 μM cytarabine (Ara-C). […] Fenretinide induces intracellular production of ROS, lowers mitochondrial transmembrane potential (MTP), and eventually leads to apoptosis in a variety of malignancies. We measured MTP induced by fenretinide in proliferating and quiescent HL60 cells, as examined through rhodamine 123 and propidium iodide staining and followed by flow cytometry analysis. […] We further measured intracellular ROS abundance induced by fenretinide. […] After incubation with 1 μM and 2.5 μM fenretinide for 3 h, the ROS level of proliferating cells increased by 1.77 and 2.6 fold, respectively.

Experiment [6] concerns HL60 cells. Description: Annexin V apoptosis assay in proliferating and serum-deprived quiescent HL60 cells. It is filed as cell-based. The following applies: 20 μM IDA. On the procedure: as §4, §3, §5
The subject of experiment [7] is U937. Nature of the experiment: Growth inhibition and combination index in AML cell line U937. In kind it is cell-based. The following applies: U937, single agent. The procedure: The combination Index (CI) was used to test the combination effect of fenretinide and Ara-C on growth inhibition in AML cell line U937. The CI was calculated according to the classic isobologram equation: CI=d1/D1+d2/D2. In this equation, D1 and D2 represent the doses of drug 1 and drug 2 alone, required to produce x % effect, and d1 and d2 are the doses of drugs 1 and 2 in combination required to produce the same effect. And CI<1, CI>1 and CI=1 represent the synergism, […], respectively.

With `COc1ccc2cc1Oc1ccc(cc1)C[C@H]1c3cc(c(OC)cc3CCN1C)Oc1c(OC)c(OC)cc3c1[C@H](C2)N(C)CC3` [Tet, tetrandrine], in the experiment with MKN45, the apoptosis was determined as 15.8%.

As to `CC1=C(/C=C/C(C)=C/C=C/C(C)=C/C(=O)Nc2ccc(O)cc2)C(C)(C)CCC1=O` [4-oxo-N-(4-hydroxyphenyl)retinamide], the “sensitivity (cell viability, MTT) of serum-deprived quiescent versus proliferating HL60 cells” value with HL60 cells [1] is “more sensitive”. Moreover, the “apoptosis of CD34+CD38− AML stem cells” value in experiment [2] was “dose-dependent manner”. Also, in experiment [3], the “apoptosis of CD34+CD38+ AML progenitor cells” value is reported as “dose-dependent manner”.

Turning to `O=C1O[C@H]([C@@H](O)CO)C([O-])=C1O.[Na+]` [vitamin C, ascorbic acid sodium salt], the “effect on fenretinide-induced apoptosis” value in the experiment with NB4 cells is reported as “completely abrogated”.

As for `Cc1ccc(NC(=O)c2ccc(CN3CCN(C)CC3)cc2)cc1Nc1nccc(-c2cccnc2)n1` [imatinib, 4-[(4-methylpiperazin-1-yl)methyl]-N-[4-methyl-3-[(4-(3-pyridinyl)-pyrimidin-2-yl)amino]phenyl]benzamide], the apoptosis rate in the experiment on K562 turned out to be 12.8%. Besides, the “GFU-GEMM formed by the more primitive progenitor cells” value in the experiment on CML CD34+ cells is “could be detected”. For the same molecule, the “complete cytogenetic response (CCR)” value in the experiment with patients with CML is recorded as ~87%.

As for `CC(C)C[C@@H](C=O)NC(=O)[C@H](CC(C)C)NC(=O)[C@H](CC(C)C)NC(=O)OCc1ccccc1` [MG132, N-[(phenyl-methoxy)-carbonyl]-L-leucyl-N-[(1S)-1-formyl-3-methylbutyl]-L-Leucinamide] (Cbz-Leu-Leu-Leu-aldehyde), the apoptosis rate is given as 2.51% in the experiment with K562 and ~5% in the experiment on U937 [4].

For the molecule `CC(=O)[C@]1(O)Cc2c(O)c3c(c(O)c2[C@@H](O[C@H]2C[C@H](N)[C@H](O)[C@H](C)O2)C1)C(=O)c1ccccc1C3=O` [IDA, idarubicin], in the experiment with HL60 cells [5], the “change in MTP” value was “little change in MTP”. Moreover, the apoptosis rate in the experiment with HL60 cells [6] (proliferating HL60 cells) worked out at 88.7%; in the experiment with HL60 cells [6] (quiescent HL60 cells) it was 29.1%.

`Nc1ccn([C@@H]2O[C@H](CO)[C@@H](O)[C@@H]2O)c(=O)n1` [Ara-C, cytosine arabinoside]: the “change in MTP” value in the experiment with HL60 cells [5] is reported as “little change in MTP”. Besides, the “dose alone required for growth inhibition rate of 65.47%” value with U937 [7] was found to be 0.091 µM. In addition, in the experiment on U937 [4], the apoptosis rate is ~5%.
